This note sets out measurements from PubChem BioAssay (NCI).

Structures are written as SMILES.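 Values below derive from 48-hour exposures of cells grown in 96-well plates, with endpoints linearly interpolated between the two concentrations bracketing the appropriate inhibition level. The concentration for 50% growth inhibition is given as GI50. TGI denotes the concentration required for complete inhibition of growth.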

Experiment in all cases: inhibition of tumour cell growth, NCI panel, 48 h
Test [1] deals with BT-549 breast.
Test [2] deals with HCC-2998 colon.
Test [3] has as its system HOP-92 NSCLC.
The subject of test [4] is NCI-H226 lung.
In test [5] the test system is SF-268 CNS.
Test [6] concerns SN12C renal.
Test [7] deals with SNB-75 CNS.
For test [8], the system named is UO-31 renal.
The test system of test [9] is IGROV1 ovarian.
Test [10] concerns UACC-257 melanoma.

On to `Cc1[nH]nc(C(F)(F)F)c1Cc1sc2c(c1C(=O)N1C[C@](C)(O)CO1)c(=O)n(C)c(=O)n2C(C)C`, for which the GI50 in [1], in test [2], in test [3], in [4], in test [5] and in test [6] was greater than 100 µM each time. Moreover, the GI50 in test [7] and in test [8] was greater than 100 µM each time. The TGI in [1], in test [2], in test [3], in [4], in test [5] and in [6] was greater than 100 µM each time. Also, the TGI in [7] and in test [8] was greater than 100 µM throughout.

As to `Clc1cnc(Nc2ccc(OCCN3CCCC3)cc2)nc1NCc1ccco1`, the GI50 is 2.29 µM in [1]; 2.92 µM in [2]; 1.14 µM in [3]; 2.5 µM in test [9]; 0.671 µM in [4]; 2.33 µM in [5]. In addition, the GI50 in test [6] was 2.42 µM; in test [7], 1.91 µM; in test [10], 2.44 µM; in test [8], 1.87 µM. Also, the TGI was 7.47 µM in [1]; 9.59 µM in test [2]; 6.6 µM in test [3]; 12.8 µM in test [9]; 11.3 µM in [4]; 6.47 µM in test [5]. Also, the TGI in [6] came to 10.6 µM; in [7], 4.27 µM; in [10] it was 6.32 µM; in [8], 11.6 µM.

Regarding `CCCCCCCCN(CCCCCCCC)CC(O)c1cc(-c2ccccc2)nc2ccc(OC)cc12` (stereo not drawn), the GI50 in test [1] was 23.9 µM; in test [2], greater than 100 µM; in test [3], 57.5 µM; in test [9], greater than 100 µM; in [4] it was greater than 100 µM; in test [5] it was 28.7 µM. Besides, the GI50 was 29.7 µM in test [6], greater than 100 µM in [7], greater than 100 µM in test [10] and 34.4 µM in [8]. The TGI is 64 µM in test [1]; greater than 100 µM in test [2]; greater than 100 µM in test [3]; greater than 100 µM in [9]; greater than 100 µM in test [4]; greater than 100 µM in [5]. Besides, the TGI in [6], in [7], in [10] and in [8] was greater than 100 µM throughout.

For `COC(=O)NC(Cc1ccccc1)NC(=O)OC(C)(C)C` (stereo not drawn), the TGI in test [1], in test [2], in test [3], in test [9], in test [4] and in test [5] was greater than 100 µM in each case. The TGI in [6], in test [7], in [10] and in test [8] was greater than 100 µM each time.

Take `COc1ccc(C(=O)/C=C/c2ccc(OCc3cccc(C(F)(F)F)c3)c(OC)c2)cc1OC`: the GI50 is 38.1 µM in [1]; 131 µM in test [2]; 142 µM in [3]; 60.2 µM in [9]; 83.1 µM in [4]; 76.6 µM in [5]. Further, the GI50 is 74.4 µM in test [6], 31.6 µM in test [7], 613 µM in test [10] and 47.3 µM in test [8]. The TGI in [1] was 476 µM; in test [2], greater than 1000 µM; in [3], greater than 1000 µM; in test [9], greater than 1000 µM; in [4], greater than 1000 µM; in [5], greater than 1000 µM. For the same molecule, the TGI in test [6], in test [7], in test [10] and in test [8] was greater than 1000 µM each time.

For `COC(=O)C1=C(C)NC(C)=C(C(=O)OC)C1c1cccc(/[N+]([O-])=C/c2ccccc2)c1`, the TGI was 30.3 µM in test [1]; greater than 100 µM in test [2]; 38 µM in test [3]; greater than 100 µM in [9]; greater than 100 µM in test [4]; greater than 100 µM in test [5]. The figures for the TGI in [7], in test [10] and in test [8] were greater than 100 µM, 40.5 µM and greater than 100 µM, respectively.

Regarding `CC12CCC(C1)C(C)(C)C2OC(=O)c1ccccc1N` (stereo not drawn), the TGI in [1] is 34.3 µM; in test [2], 27.9 µM; in test [3], 24.4 µM; in [9], 40.5 µM; in [5], 31.6 µM; in [6] it was 31.7 µM. Besides, the figures for the TGI in test [7], in test [10] and in test [8] were 35.1 µM, 29 µM and 30.8 µM, respectively.

Turning to `COc1cc2ncnc(Oc3ccc(NC(=O)Nc4ccc(CN5CCOCC5)c(C(F)(F)F)c4)c4ccccc34)c2cc1OC`, the GI50 was 1.11 µM in [1]; 4.8 µM in [2]; 0.413 µM in test [3]; 0.517 µM in test [9]; 0.264 µM in [4]; 0.453 µM in [5]. In addition, the GI50 in test [6] is 0.292 µM; in test [7] it was 0.957 µM; in test [10], 0.964 µM; in test [8], 0.189 µM. Moreover, the TGI in test [1] came to 5.28 µM; in [2], 18.8 µM; in test [3] it was 6.74 µM; in test [9], 3.25 µM; in test [4] it was 16 µM; in test [5], 8.94 µM. Besides, the TGI in test [6] was 1.71 µM; in [7], 12.8 µM; in test [10] it was 4.12 µM; in test [8], 2.98 µM.

Consider `Clc1ccc2c(NC3CCC(N4CCCCC4)CC3)ccnc2c1` (stereo not drawn), for which the TGI in test [1] was 42.8 µM; in test [2], 27.4 µM; in test [3], 29.9 µM; in test [9], greater than 100 µM; in test [4], 48.1 µM; in test [5], greater than 100 µM. The TGI was greater than 100 µM in test [6], 29.4 µM in test [10] and 28 µM in test [8].
